This is an account of results in ChEMBL document CHEMBL1177795, “Synthesis of two marine farnesylacetones that dilate the basilar arteries of rabbits” (Bioorg Med Chem Lett, 2010).

Test [1] is described as follows: Vasorelaxant activity against depolarization-induced basilar artery constriction in white rabbit at 10 uM. The format is functional, Oryctolagus cuniculus. Details: scale not given: the % may be the effect or the level left.
Test [2] can be described thus: Vasorelaxant activity against depolarization-induced basilar artery constriction in white rabbit. The format is functional, tissue-based, Oryctolagus cuniculus.

Turning to `CC(=O)CC/C=C(\C)CCC/C(C)=C/C(O)CC(C)C` (stereo unspecified), the Activity in test [1] worked out at 98.9%. Besides, a half-maximal effect in test [2] (EC50) was put at 2380 nM.

With `C/C(=C\CC/C(C)=C/CCC1(C)OCCO1)CC#N`, in test [1], the Activity stood at 33.5%. `C/C(=C\CCC1(C)OCCO1)CCC/C(C)=C/C(O)CC(C)C` (stereo unspecified) had an Activity in test [1] of 99.8%. For the same molecule, in test [2], the EC50 came out at 1410 nM. As to `C/C(=C\CCC1(C)OCCO1)CCC/C(C)=C/C(=O)CC(C)C`, in test [1], the Activity is given as 83.3%. `CC(=O)CC/C=C(\C)CCC/C(C)=C/C=O` yielded an Activity in test [1] of 12.6%.

In the case of `CC(=O)CC/C=C(\C)CCC/C(C)=C/C#N`, in test [1], the Activity is recorded as 10.3%.

In the case of `C/C(=C\C=O)CCC/C(C)=C/CCC1(C)OCCO1`, the Activity in test [1] is 20.1%. Consider `CC(=O)CC/C=C(\C)CC/C=C(\C)CC#N`, for which, in test [1], the Activity amounted to 13.1%. In turn, `C/C(=C\C#N)CCC/C(C)=C/CCC1(C)OCCO1` gave an Activity in test [1] of 44.6%.

As usually defined, the EC50 is the concentration needed to bring the measured effect to its halfway point.
